Reference: patent publication US10344019B2 (priority 2010, dated 2019)

Legend:
Experiment in all cases: microbe, parasite or virus in culture
Assay type in all cases: cell-based
[1] = system: HCV 2a JFH-1 Rluc cells (dicistronic genotype 2a JFH-1 replicon, RLuc reporter); details: Hepatitis C virus, genotype 2a JFH-1 replicon, RLuc reporter; read-out: 2a JFH
Description: (§1) Evaluation of cell-based anti-HCV activity: Antiviral potency (EC50) was determined using a Renilla luciferase (RLuc)-based HCV replicon reporter assay. To perform the assay for genotype 1 and 2a JFH-1, HCV 1b RLuc cells (harboring a dicistronic genotype 1b Con1 replicon that encodes a RLuc reporter), or HCV 1a RLuc cells (harboring a dicistronic genotype 1a H77 replicon that encodes a RLuc reporter), or HCV 2a JFH-1 Rluc cells (harboring a dicistronic genotype 2a JFH-1 replicon that encodes a RLuc reporter) were dispensed into 384-well plates. To perform the assay for genotype 2a (with M31 present) or 2b, HCV 2a Rluc or 2b Rluc cells (both with M31 present) harboring a dicistronic NS5A chimeric genotype 2a JFH-1 replicon that encodes a RLuc reporter and either genotype 2a J6 strain NS5A gene or genotype 2b MD2b-1 NS5A gene (based on Los Alamos HCV database isolates, both with M31 present) respectively, were dispensed into 384-well plates. To perform the assay for genotype 3 and 4, HCV 3a RLuc or 4a Rluc cells harboring a dicistronic NS5A chimeric genotype 1b Con1 replicon that encodes a RLuc reporter and either a consensus genotype 3a NS5A gene or genotype 4a NS5A gene (based on Los Alamos HCV database isolates) respectively, were dispensed into 384-well plates. Compounds were re-suspended in DMSO at a concentration of 10 mM and serially diluted in DMSO either manually or using an automated pipeting instrument. Serially diluted compounds were mixed with cell culture media and added to the seeded cells. […] 72 hours later, cells were lysed and Renilla luciferase activity quantified as recommended by the manufacturer (Promega-Madison, Wis.). Non-linear regression was performed to calculate EC50 values.

[2] = system: HCV 1a RLuc cells (dicistronic genotype 1a H77 replicon, RLuc reporter); details: Hepatitis C virus, genotype 1a H77 replicon, RLuc reporter; read-out: 1a
Description: as §1

[3] = system: HCV 1b RLuc cells (dicistronic genotype 1b Con1 replicon, RLuc reporter); details: Hepatitis C virus, read-out: 1b (nM)
Description: as §1

[4] = system: HCV 3a RLuc cells (NS5A chimeric genotype 1b Con1 replicon with consensus genotype 3a NS5A gene); details: Hepatitis C virus, read-out: 3a, genotype 3a NS5A chimeric 1b Con1 replicon
Description: as §1

COC(=O)N[C@H](C(=O)N1CCC[C@H]1c1ncc(-c2ccc(-c3ccc4cc(-c5cnc([C@@H]6C[C@H](C#N)CN6C(=O)[C@@H](c6ccccc6)N(C)C)[nH]5)ccc4c3)cc2)[nH]1)C(C)C [Example 118]
EC50 [1]: 0.001 to 0.999 nM
EC50 [2]: 0.001 to 0.999 nM
EC50 [3]: 0.027 nM
EC50 [4]: 0.001 to 0.99 nM

COC(=O)N(C)[C@H](C(=O)N1CCC[C@H]1c1ncc(-c2ccc3cc(-c4ccc(-c5cnc([C@@H]6CCCN6C(=O)C(c6ccccc6)N6CCOCC6)[nH]5)cc4)ccc3c2)[nH]1)C(C)C (stereo partly shown) [Example 119]
EC50 [1]: 0.001 to 0.999 nM
EC50 [2]: 0.001 to 0.999 nM
EC50 [3]: 0.02 nM
EC50 [4]: 0.001 to 0.99 nM

COC(=O)N[C@H](C(=O)N1CCC[C@H]1c1ncc(-c2ccc(-c3ccc4cc(-c5cnc([C@@H]6CCCN6C(=O)C(c6ccccc6)N6CCOCC6)[nH]5)ccc4c3)cc2)[nH]1)C(C)C (stereo partly shown) [Example 120]
EC50 [1]: 0.001 to 0.999 nM
EC50 [2]: 0.001 to 0.999 nM
EC50 [3]: 0.014 nM
EC50 [4]: 0.001 to 0.99 nM

COC(=O)N[C@H](C(=O)N1C[C@H](C)C[C@H]1c1ncc(-c2cc3cc4sc(-c5cnc([C@@H]6C[C@@H](C)CN6C(=O)[C@@H](NC(=O)OC)C(C)C)[nH]5)cc4cc3s2)[nH]1)C(C)C [Example 121]
EC50 [1]: 0.001 to 0.999 nM
EC50 [2]: 0.001 to 0.999 nM
EC50 [3]: 0.011 nM
EC50 [4]: 1 to 4.99 nM

COC(=O)N[C@H](C(=O)N1CCC[C@H]1c1ncc(-c2ccc3cc(-c4ccc(-c5cnc([C@@H]6C[C@H](C#N)CN6C(=O)[C@H](NC(=O)OC)c6ccccc6)[nH]5)cc4)ccc3c2)[nH]1)C(C)C [Example 124]
EC50 [1]: 0.001 to 0.999 nM
EC50 [2]: 0.001 to 0.999 nM
EC50 [3]: 0.011 nM
EC50 [4]: 0.001 to 0.99 nM

COC(=O)N[C@H](C(=O)N1CCC[C@H]1c1ncc(-c2ccc(-c3ccc4cc(-c5cnc([C@@H]6CCCN6C(=O)C(c6ccccc6)N6CCCC6)[nH]5)ccc4c3)cc2)[nH]1)C(C)C (stereo partly shown) [Example 125]
EC50 [1]: 0.001 to 0.999 nM
EC50 [2]: 0.001 to 0.999 nM
EC50 [3]: 0.032 nM
EC50 [4]: 0.001 to 0.99 nM

COC(=O)N[C@@H](CC(F)F)C(=O)N1CCC[C@H]1c1ncc(-c2ccc3cc(-c4ccc(-c5cnc([C@@H]6CCCN6C(=O)[C@H](NC(=O)OC)c6ccccc6)[nH]5)cc4)ccc3c2)[nH]1 [Example 127]
EC50 [1]: 0.001 to 0.999 nM
EC50 [2]: 0.001 to 0.999 nM
EC50 [3]: 0.006 nM
EC50 [4]: 0.001 to 0.99 nM

COC(=O)N[C@H](C(=O)N1CCC[C@H]1c1ncc(-c2ccc3cc(-c4ccc(-c5cnc([C@@H]6C[C@H](C)CN6C(=O)[C@H](NC(=O)OC)c6ccccc6)[nH]5)cc4)ccc3c2)[nH]1)C(C)C [Example 130]
EC50 [1]: 0.001 to 0.999 nM
EC50 [2]: 0.001 to 0.999 nM
EC50 [3]: 0.006 nM
EC50 [4]: 0.001 to 0.99 nM

COC(=O)N[C@H](C(=O)C1CCSC1c1ncc(-c2ccc(-c3ccc4cc(-c5cnc([C@@H]6CCCN6C(=O)[C@H](NC(=O)OC)c6ccccc6)[nH]5)ccc4c3)cc2)[nH]1)C(C)C (stereo partly shown) [Example 131]
EC50 [1]: 0.001 to 0.999 nM
EC50 [2]: 0.001 to 0.999 nM
EC50 [3]: 0.009 nM
EC50 [4]: 0.001 to 0.99 nM

COC(=O)N[C@H](C(=O)N1C[C@H](C)C[C@H]1c1ncc(-c2ccc3cc(-c4ccc(-c5cnc([C@@H]6CCCN6C(=O)[C@H](NC(=O)OC)c6ccccc6)[nH]5)cc4)ccc3c2)[nH]1)C(C)C [Example 132]
EC50 [1]: 0.001 to 0.999 nM
EC50 [2]: 0.001 to 0.999 nM
EC50 [3]: 0.003 nM
EC50 [4]: 0.001 to 0.99 nM

COC(=O)N[C@H](C(=O)N1CCC[C@H]1c1ncc(-c2ccc3cc(-c4ccc(-c5cnc([C@@H]6CCCN6C(=O)C(c6ccccc6)N(C)C)[nH]5)cc4)ccc3c2)[nH]1)C(C)C (stereo partly shown) [Example 134]
EC50 [1]: 0.001 to 0.999 nM
EC50 [2]: 0.001 to 0.999 nM
EC50 [3]: 0.007 nM
EC50 [4]: 0.001 to 0.99 nM

COC(=O)N[C@H](C(=O)N1C[C@H](C#N)C[C@H]1c1ncc(-c2ccc3cc(-c4ccc(-c5cnc([C@@H]6CCCN6C(=O)[C@H](NC(=O)OC)c6ccccc6)[nH]5)cc4)ccc3c2)[nH]1)C(C)C [Example 135]
EC50 [1]: 0.001 to 0.999 nM
EC50 [2]: 0.001 to 0.999 nM
EC50 [3]: 0.006 nM
EC50 [4]: > 5 nM

COC(=O)N[C@H](C(=O)N1C[C@@H](C#N)C[C@H]1c1ncc(-c2ccc3cc(-c4ccc(-c5cnc([C@@H]6CCCN6C(=O)[C@@H](c6ccccc6)N(C)C)[nH]5)cc4)ccc3c2)[nH]1)C(C)C [Example 137]
EC50 [1]: 0.001 to 0.999 nM
EC50 [2]: 0.001 to 0.999 nM
EC50 [3]: 0.012 nM
EC50 [4]: 0.001 to 0.99 nM

CCN(CC)C(C(=O)N1CCC[C@H]1c1ncc(-c2ccc(-c3ccc4cc(-c5cnc([C@@H]6CCCN6C(=O)[C@@H](NC(=O)OC)C(C)C)[nH]5)ccc4c3)cc2)[nH]1)c1ccccc1 (stereo partly shown) [Example 138]
EC50 [1]: 0.001 to 0.999 nM
EC50 [2]: 0.001 to 0.999 nM
EC50 [3]: 0.006 nM
EC50 [4]: 0.001 to 0.99 nM

COC(=O)N[C@H](C(=O)N1CCC[C@H]1c1ncc(-c2ccc3cc(-c4ccc(-c5cnc([C@@H]6C[C@@H](F)CN6C(=O)[C@H](NC(=O)OC)c6ccccc6)[nH]5)cc4)ccc3c2)[nH]1)C(C)C [Example 139]
EC50 [1]: 1 to 44 nM
EC50 [2]: 0.001 to 0.999 nM
EC50 [3]: 0.004 nM
EC50 [4]: 0.001 to 0.99 nM

COC(=O)N[C@H](C(=O)N1CCC[C@H]1c1ncc(-c2nc3cc4sc(-c5cnc([C@@H]6CCCN6C(=O)[C@@H](NC(=O)OC)C(C)C)[nH]5)nc4cc3s2)[nH]1)C(C)C [Example 141]
EC50 [1]: 1 to 44 nM
EC50 [2]: 1 to 44 nM
EC50 [3]: 0.181 nM
EC50 [4]: > 5 nM

COC(=O)N[C@H](C(=O)N1CCC[C@H]1c1ncc(-c2ccc3cc(-c4ccc5c(c4)CCc4nc([C@@H]6CCCN6C(=O)[C@H](NC(=O)OC)c6ccccc6)[nH]c4-5)ccc3c2)[nH]1)C(C)C [Example 142]
EC50 [1]: 0.001 to 0.999 nM
EC50 [2]: 0.001 to 0.999 nM
EC50 [3]: 0.013 nM
EC50 [4]: 0.001 to 0.99 nM

COC(=O)NC(C(=O)N1CCC[C@@]1(F)c1ncc(-c2ccc(-c3ccc4cc(-c5cnc([C@@H]6CCCN6C(=O)[C@@H](NC(=O)OC)C(C)C)[nH]5)ccc4c3)cc2)[nH]1)c1ccc2c(c1)OCO2 (stereo partly shown) [Example 143]
EC50 [1]: 1 to 44 nM
EC50 [2]: 0.001 to 0.999 nM
EC50 [3]: 0.025 nM
EC50 [4]: > 5 nM

COC(=O)N[C@H](C(=O)N1C[C@H](C#N)C[C@H]1c1ncc(-c2ccc3cc(-c4ccc(-c5cnc([C@@H]6CCCN6C(=O)[C@@H](c6ccccc6)N(C)C)[nH]5)cc4)ccc3c2)[nH]1)C(C)C [Example 144]
EC50 [1]: 0.001 to 0.999 nM
EC50 [2]: 0.001 to 0.999 nM
EC50 [3]: 0.013 nM
EC50 [4]: 0.001 to 0.99 nM

COC(=O)N[C@H](C(=O)N1CCC[C@H]1c1ncc(-c2ccc3cc(-c4ccc(-c5cnc([C@@H]6C[C@@H](C#N)CN6C(=O)[C@H](NC(=O)OC)c6ccccc6)[nH]5)cc4)ccc3c2)[nH]1)C(C)C [Example 145]
EC50 [1]: 0.001 to 0.999 nM
EC50 [2]: 0.001 to 0.999 nM
EC50 [3]: 0.01 nM
EC50 [4]: 1 to 4.99 nM

COC(=O)NC(C(=O)N1CCC[C@H]1c1ncc(-c2ccc(-c3ccc4cc(-c5cnc([C@@H]6CCCN6C(=O)[C@@H](NC(=O)OC)C(C)C)[nH]5)ccc4c3)cc2)[nH]1)c1cccc(C(F)(F)F)c1 (stereo partly shown) [Example 146]
EC50 [1]: 1 to 44 nM
EC50 [2]: 1 to 44 nM
EC50 [3]: 0.048 nM
EC50 [4]: > 5 nM

COC(=O)N[C@H](C(=O)N1C[C@H](C)C[C@H]1c1ncc(-c2ccc3cc(-c4ccc(-c5cnc([C@@H]6CCCN6C(=O)[C@H](NC(=O)OC)c6ccccc6OC)[nH]5)cc4)ccc3c2)[nH]1)C(C)C [Example 147]
EC50 [1]: 0.001 to 0.999 nM
EC50 [2]: 0.001 to 0.999 nM
EC50 [3]: 0.012 nM
EC50 [4]: 0.001 to 0.99 nM
